In patent US20030104489A1, “Functional assay for agonist activation of receptors” (Pfizer Inc., priority 2001, published 2003):

Tested on: D3-G[…]15 cells
Test: FLIPR assay of intracellular Ca2+ release in D3-Gα15 cells, effect of pre-incubation time at 37 °C (Table 2)
Format: cell-based
Conditions: for Ca2+ response (FLIPR signal), time at 37 °C: 5 min: 5 min pre-incubation at 37 °C; for Ca2+ response (FLIPR signal), time at 37 °C: 5 min / Ca2+ response (FLIPR signal), time at 37 °C: 15 min / % change (elevation of FLIPR signal, 5 min to 15 min pre-incubation at 37 °C): dopamine 100 nM; for Ca2+ response (FLIPR signal), time at 37 °C: 5 min / Ca2+ response (FLIPR signal), time at 37 °C: 15 min: (at or above EC90); for Ca2+ response (FLIPR signal), time at 37 °C: 15 min: 15 min pre-incubation at 37 °C; for % change (elevation of FLIPR signal, 5 min to 15 min pre-incubation at 37 °C): 15 min vs 5 min at 37 °C; for effect of prolonged preincubation at 37 °C on the induced Ca2+ response: ATP via endogenous purinergic receptors, ionomycin as ionophore
Protocol: The HEK293-Gα15 cell line stably expressing the D3 receptor was used to develop Ca^2+-based assay using the FLIPR-based method. Cells were plated in a 96 or 384 well poly-D lysine-coated FLIPR plates for 16-24 hours before the assay. Cells were loaded with cell dye-media solution (media −11 ml, dye-4 μM Fluo-4 AM, Pluronic® acid 22 ul, probenecid −110 ul of 260 mM solution) for 1 hour at 37° C. The plates were washed in the Skatron Embla™ plate washer with assay buffer (NaCl—0.145M, Glucose—0.01 M, KCl—0.005M, MgSO4—0.001 M, HEPES—0.01 M and CaCl2—0.002M) and stabilized for 30 minutes at 25° C. and 37° C., respectively, before starting the experiment. Antagonists were added 15 minutes prior to the agonist addition. The fluorescence intensities were measured using the excitation and emission wavelengths of 488 nm and 520 nm respectively. Data are taken as the average +S.D. of four replicates.
[…]. The elevation of FLIPR signal (in percentage) in 5 min and 15 min pre-incubation at 37° C. is shown.

Structure (SMILES) | Ca2+ response (FLIPR signal), time at 37 °C: 5 min | Ca2+ response (FLIPR signal), time at 37 °C: 15 min | % change (elevation of FLIPR signal, 5 min to 15 min pre-incubation at 37 °C) | effect of prolonged preincubation at 37 °C on the induced Ca2+ response
C[C@H](CCC(=O)O)C[C@H](C)C[C@H](C)C(=O)/C=C(\O)[C@H](C)C[C@H](C)C/C=C/[C@@H](C)[C@@H](O)[C@@H](C)[C@@H](O)C[C@@H]1CC[C@@](C)([C@H]2CC[C@@](C)([C@@H](C)O)O2)O1 [ionomycin] | 8042 ± 652 | 8465 ± 132 | 5% | not affected
NCCc1ccc(O)c(O)c1 [Dopamine, dopamine] | 157 ± 47 | 550 ± 38 | 257% | –
Nc1ncnc2c1ncn2[C@@H]1O[C@H](COP(=O)(O)OP(=O)(O)OP(=O)(O)O)[C@@H](O)[C@H]1O [ATP] | 2859 ± 630 | 3346 ± 171 | 17% | not affected
